Measured values reported in article PMC5413018, “Neuropeptide S (NPS) variants modify the signaling and risk effects of NPS Receptor 1 (NPSR1) variants in asthma” (PLoS ONE, 2017).

Legend:
NPSR1-Ile(107) [1] = details: cell models; cited from earlier work
From the text: The functional NPSR1 SNP rs324981 (A>T), encoding a substitution of Asn(107)Ile in the putative ligand-binding pocket of NPSR1 [5], has shown associations with neuropsychiatric phenotypes, such as panic disorders, psychological stress, and fear responses. […] In cell models, the change of Asn(107) to Ile(107) results in 10-fold increase in NPS-mediated intracellular sign ... || A key strength of this study is the use of robust in vitro cell assays that allowed us to dissect the functional effects of coding NPS/NPSR1 variants on receptor signaling and downstream gene expression. Our cell assays confirmed that stimulation of cells transfected with either NPSR1-Asn(107) or NPSR-Ile(107) with the wildtype NPS-Val(6), induced CRE activity as described previously.

NPSR1-Ile(107) [2] = molecular target: T1, NPSR1-Ile(107) (Homo sapiens, UniProt Q6W5P4, N107I); test: Real-time RT-PCR of downstream target genes in SH-SY5Y cells stably overexpressing NPSR1-Ile(107); type: cell-based; set-up: expressed in transfected cells; details: SH-SY5Y over-expressing NPSR1-Ile(107), 0.0001–1 μM, 3 h, dose dependent
T1 sequence (Q6W5P4 1-371 N107I): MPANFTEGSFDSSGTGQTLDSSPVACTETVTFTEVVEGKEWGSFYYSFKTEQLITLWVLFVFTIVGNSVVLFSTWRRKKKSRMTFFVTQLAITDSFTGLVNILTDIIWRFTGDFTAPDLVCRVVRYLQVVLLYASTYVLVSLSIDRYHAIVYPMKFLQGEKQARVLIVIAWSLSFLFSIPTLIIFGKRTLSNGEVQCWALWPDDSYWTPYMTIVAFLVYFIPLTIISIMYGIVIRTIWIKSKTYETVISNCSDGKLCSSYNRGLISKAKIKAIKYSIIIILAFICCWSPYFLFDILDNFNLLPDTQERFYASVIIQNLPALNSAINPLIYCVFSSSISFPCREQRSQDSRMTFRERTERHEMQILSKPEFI
Protocol: Fig 2 Real time RT-PCR analysis of NPSR1 downstream target genes. (A) Time-dependent mRNA expression of NR4A1, FOS, CXCL2, and CCL20 in human embryonic kidney epithelial (HEK293) cells transiently transfected with either NPSR1-Ile(107) or NPSR1-Asn(107) coding variants and stimulated with either NPS-Val(6) or NPS-Leu(6) NPS (100 nM) for 1, 3, 6, and 24 h. (B) Dose-response curves of NR4A1, FOS, IER3, and EGR1 in human SH-SY5Y stable cell line over-expressing NPSR1-Ile(107) stimulated with either NPS-Leu(6) or NPS V6 (0.0001–1 μM) for 3 h. The results are presented as fold-changes in comparison to the unstimulated cells. GAPDH was used as the endogenous reference, and data are expressed as mean of triplicate samples. […] In all experiments, results were calculated with the comparative Ct method.
Altered neuroinflammatory mechanisms have been implicated in allergic airway inflammation. […] SH-SY5Y cells stably overexpressing NPSR1-Ile(107) were stimulated with either NPS-Leu(6) or NPS-Val(6) (0.0001–1 μM) for 3 h and the mRNA expression of known downstream target genes in these cells was detected using RT-PCR. […] These observations validated the results detected in HEK293 cells in an independent cell line.
The stable NPSR1-A-GFP expressing SH-SY5Y cells were engineered and cultured as described before. […] The changes in gene expression were analyzed with real-time PCR (RT-PCR). […]

chemotaxis = details: cited from earlier work
From the text: (§1) In our cells assays, the magnitude of the mRNA expression of NR4A1 was clearly dependent on the combination of NPS and NPSR1 variants (Fig 2). NR4A1 is expressed in lymphocytes upon stimulation and is anti-inflammatory. NR4A1 has been recently described as a key regulator of catecholamine production by macrophages linking sympathetic stress response and inflammation ...

phagocytosis = details: cited from earlier work
From the text: as §1

[3] = test system: serum pro-inflammatory cytokines; details: pigs, central and peripheral administration; cited from earlier work
From the text: as §1

## Neuropeptide S (SFRNGVGTGMKKTSFQRAKS; Neuropeptide S; UniProt P0C0P6 70-89, looked up) [NPS, Neuropeptide S, variant not specified at the place]
NPSR1-Ile(107) [1]
  increase in NPS-mediated intracellular signaling on change of Asn(107) to Ile(107): 10 fold
NPSR1-Ile(107) [2]
  mRNA expression of NR4A1, FOS, EGR1 and IER3 (in words): increased
chemotaxis
  effects on chemotaxis (in words): direct effects
phagocytosis
  effects on phagocytosis (in words): direct effects
[3]
  levels of serum pro-inflammatory cytokines (in words): could be activated
